PubChem BioAssay AID806 (SRMLSC, 2007)
Calls of active or inactive are those of the source. The rule behind the calls is not given here.

Test system: virus-infected cells, CPE inhibition, dose response
Assay: PubChem AID 806
Conditions: for EC90: measured here: EC90 CPE inhibition; for CC50: measured here: cytotoxicity, cell viability IC50

| Compound | EC50 | EC90 [µM] | CC50 [µM] |
| --- | --- | --- | --- |
| CC(C)CCNC(=O)C1CCCCN1S(=O)(=O)c1ccc(F)cc1 (stereo not given) | > 60 µM (inactive) | > 60 | > 60 |
| COc1ccc(S(=O)(=O)Nc2ccc(C)cc2)cc1N(C)S(=O)(=O)c1ccc(Cl)cc1 | > 60 µM (inactive) | > 60 | > 60 |
| COc1ccc(OC)c(-n2c(SC)nnc2-c2c[nH]c3ccccc23)c1 | > 60 µM (inactive) | > 60 | > 60 |
| CCOC(=O)c1cccc(NC(=O)CCS(=O)(=O)c2cccc3nsnc23)c1 | > 60 µM (inactive) | > 60 | > 60 |
| Cc1cccc(NC(=O)C2CC(=O)OC23CCCC3)c1 (stereo not given) | > 60 µM (inactive) | > 60 | > 60 |
| COc1cccc(CNC(=O)c2ccc(S(=O)(=O)N3CCCC3)cc2)c1 | > 60 µM (inactive) | > 60 | > 60 |
| Cc1ccccc1NC(=O)c1ccc(NC(=O)c2ccco2)cc1 | > 60 µM (inactive) | > 60 | > 60 |
| CCOC(=O)c1cnn(-c2ccccc2)c1-n1cccc1C(=O)C(=O)Nc1ccccc1C(F)(F)F | > 60 µM (inactive) | > 60 | > 60 |
| CC(C)(C)c1ccc(S(=O)(=O)N2CCCCC2C(=O)NCc2ccccn2)cc1 (stereo not given) | > 60 µM (inactive) | > 60 | > 60 |
| O=C(Nc1ccc2nc3n(c(=O)c2c1)CCCCC3)c1ccccc1Cl | > 60 µM (inactive) | > 60 | > 60 |
| Cc1ccc2c(C)c(C(=O)Nc3cccnc3)oc2c1 | > 60 µM (inactive) | > 60 | > 60 |
| CCS(=O)(=O)Nc1cc(-c2nc3cccnc3s2)ccc1C | > 60 µM (inactive) | > 60 | > 60 |
| COc1ccccc1NC(=O)C1CCCCN1S(=O)(=O)c1ccc(F)cc1 (stereo not given) | > 60 µM (inactive) | > 60 | > 60 |
| O=C(Nc1cccc2ncccc12)c1cc2ccccc2o1 | > 60 µM (inactive) | > 60 | > 60 |
| COCCNC(=O)C(c1ccccc1)N(CCOC)C(=O)Cn1nnc2ccccc21 (stereo not given) | > 60 µM (inactive) | > 60 | > 60 |
| Cc1nn2c(C(F)(F)F)cc(-c3ccc(Cl)cc3)nc2c1C(=O)N1CCOCC1 | > 60 µM (inactive) | > 60 | > 60 |
| CC(C)c1cccc(C(C)C)c1OCCCCN1CCCC1 | > 60 µM (inactive) | > 60 | > 60 |
| CC(C)CNC(=O)c1cccc(NC(=O)c2ccc(NC(=O)c3ccco3)cc2)c1 | > 60 µM (inactive) | > 60 | > 60 |
| COCCNC(=O)C(c1ccco1)N(C(=O)Cn1nnc2ccccc21)c1ccccc1C (stereo not given) | > 60 µM (inactive) | > 60 | > 60 |
| CCCN(CCC)C(=O)CCS(=O)(=O)c1cccc2nsnc12 | > 60 µM (inactive) | > 60 | > 60 |
| O=C(NCc1ccco1)C1CCCCN1S(=O)(=O)c1ccc(F)cc1 (stereo not given) | > 60 µM (inactive) | > 60 | > 60 |
| O=C(C1CCCCN1S(=O)(=O)c1ccccc1)N1CCCCC1 (stereo not given) | > 60 µM (inactive) | > 60 | > 60 |
| Cc1cc2oc(C(=O)Nc3cccnc3)c(C)c2cc1C | > 60 µM (inactive) | > 60 | > 60 |
| O=C(CN1CCN(c2ncccn2)CC1)NCCC1=CCCCC1 |  | > 60 | > 60 |
| CCC(C)(C)NC(=O)C(c1cccnc1)N(CCOC)C(=O)Cn1nnc2ccccc21 (stereo not given) | > 60 µM (inactive) | > 60 | > 60 |

| Compound | EC50 | EC90 [µM] | CC50 [µM] |
| --- | --- | --- | --- |
| O=C(Nc1ccccc1)N1CCn2c1nc1ccccc12 | > 60 µM (inactive) | > 60 | > 60 |
| COCCNC(=O)C(c1ccccc1)N(C(=O)Cn1nnc2ccccc21)c1cccnc1 (stereo not given) | > 60 µM (inactive) | > 60 | > 60 |
| Cc1c(C(=O)Nc2ccc(Cl)cn2)oc2ccccc12 | > 60 µM (inactive) | > 60 | > 60 |
| CC1(C)Cc2c(c(N3CCOCC3)nc3sc4c(=O)[nH]cnc4c23)CS1 | > 60 µM (inactive) | > 60 | > 60 |
| Cc1ccc(NC(=O)c2noc3c2CCc2ccccc2-3)cc1 | > 60 µM (inactive) | > 60 | > 60 |
| Cc1ccc(/C=C/C(=O)c2c(C)cc(C)[nH]c2=O)cc1 | > 60 µM (inactive) | > 60 | > 60 |
| O=C(c1cnn2c(C(F)F)cc(-c3ccccc3)nc12)N1CCOCC1 | > 60 µM (inactive) | > 60 | > 60 |
| CCC(C)NC(=O)C1CCCCN1S(=O)(=O)c1ccc(F)cc1 (stereo not given) | > 60 µM (inactive) | > 60 | > 60 |
| Cc1c(C(=O)Nc2ccccn2)oc2ccccc12 | > 60 µM (inactive) | > 60 | > 60 |
| O=C1CC(C(=O)Nc2ccc(C(=O)N3CCOCC3)cc2)C2(CCCCC2)O1 (stereo not given) | > 60 µM (inactive) | > 60 | > 60 |
| CC(C)(C)OC(=O)N[C@@H](Cc1ccccc1)c1nnc(SCC(=O)O)o1 | > 60 µM (inactive) | > 60 | > 60 |
| O=C(Nc1ccccc1)c1cc2ccccc2o1 | > 60 µM (inactive) | > 60 | > 60 |
| O=C1CSC(=S)N1Cc1cccnc1 | > 60 µM (inactive) | > 60 | 50.8 |
| O=C1CC(C(=O)Nc2ccc(Br)cc2)C2(CCCC2)O1 (stereo not given) | > 60 µM (inactive) | > 60 | > 60 |
| CCOC(=O)/C=C1\SCC(=O)N1CC(=O)Nc1ccc(OC)c(OC)c1 | > 60 µM (inactive) | > 60 | > 60 |
| CCOc1ccccc1Nc1ncnc2c1cnn2-c1ccccc1 | > 60 µM (inactive) | > 60 | > 60 |
| O=Nc1c(O)n(Cc2cccc(Cl)c2)c2ccccc12 | > 60 µM (inactive) | > 60 | > 60 |
| CCSc1nnc(-c2ccc(Cl)cc2Cl)o1 |  | > 60 | 43.7 |
| Cc1nc2nc(-c3ccccc3)[nH]n2c(=O)c1Cc1ccccc1 | > 60 µM (inactive) | > 60 | > 60 |
| COc1ccccc1CNC(=O)c1ccc(S(=O)(=O)N2CCCC2)cc1 | > 60 µM (inactive) | > 60 | > 60 |
| CCN(CC)S(=O)(=O)c1ccc(C(=O)NCc2ccc(C)cc2)cc1 | > 60 µM (inactive) | > 60 | > 60 |
| Cc1cc(C(=O)Nc2c(C)n(C)n(-c3ccccc3)c2=O)c(C)o1 | > 60 µM (inactive) | > 60 | > 60 |
| Nc1c(C(=O)Nc2ccc(Cl)cc2)oc2ccccc12 | > 60 µM (inactive) | > 60 | > 60 |
| CC(NC(=O)c1ccc(S(=O)(=O)N(C)C)cc1)c1ccccc1 (stereo not given) | > 60 µM (inactive) | > 60 | > 60 |
